{"source": "patent US10835500B2", "about": "“Medicament for accelerated wound healing” (Symrise AG, priority 2014, dated 2020)", "format_in_all_cases": "cell-based, human", "key": {"[1]": {"tested_on": "JNK/SAPK", "assay": "Western Blot, phosphorylation of JNK/SAPK in HaCaT cells", "conditions": "500 μM, 0-30 min", "procedure": "(§1) In the following, an investigation was to be conducted to determine whether a MAPK signalling pathway is activated by Sandalore® stimulation in skin cells, and if so, which pathway is involved. For detection, HaCaT cells were stimulated for 0-30 min with 500 μM of Sandalore®, and the proteins were then isolated and used in Western Blot assays.\nEffect of Sandalore® stimulation on phosphorylation of MAP kinases in skin cells. A) Western Blot for investigating the phosphorylation of the MAP kinases in HaCaT cells stimulated for 0, 5, 15 and 30 min with Sandalore®(500 μM). In order to confirm uniform protein volume, ▪-tubulin was used as a control. ERK1/2: 42/44 kDa; p38: 43 kDa; JNK/SAPK: 46/54 kDA; ▪-tubulin: 52 kDa. B) Quantitative evaluation of p38 and ERK1/2 phosphorylation of HaCaT cells stimulated for 30 min with Sandalore®(500 μM) or additionally with the p38 inhibitor 5B203580 (10 μM) or ERK1/2 inhibitor U0126 (10 μM). For evaluation, the ratio of the phosphorylated (p) and unphosphorylated proteins was established and compared to that of untreated cells. Mean values including standard error. Mann-Whitney U test. *: p<0.05; ***: p<0.001. In C), the inhibitors of the respective other MAP kinase were used, and phosphorylation was compared to the cells stimulated with Sandalore® (500 μM) alone. Mean values including standard error. Mann-Whitney U test. *: p<0.05. […]"}, "[2]": {"tested_on": "cAMP content of HaCaT cells", "assay": "cAMP assay (cAMP-Glo) in HaCaT cells", "procedure": "In order to identify the calcium channel through which calcium ions flow from the outside into the cytosol of the skin cells, the CNG channel blocker L-cis-diltiazem was used. […] An additional cAMP assay was conducted in order to verify the data of pharmacological characterization by means of the calcium imaging technique. For this purpose, HaCaT cells with various Sandalore® concentrations were stimulated, and cAMP content was determined.\nPharmacological characterization of Sandalore®-induced signal cascade in human keratinocytes. A)-D). Shown are representative calcium imaging traces of primary keratinocytes in the presence of a blocker (blue). The horizontal bars correspond to the application times. 100 μM of ATP was used at the end of each measurement as a positive control stimulus. A) Measurement with calcium-free extracellular solution (+10 mM EGTA). B) Measurement with the adenylyl cyclase blocker SQ-22536 (100 μM). C) Use of the phospholipase-C blocker U-73122 (10 μM). 100 μM of histamine was taken as a positive control. D) Measurement with the CNG channel blocker L-cis-diltiazem (150 μM). E) Overview of pharmacological measurement of HaCaT cells and primary keratinocytes (Kera). […] Significance was determined between HaCaT cells stimulated with Sandalore® and stimulated with an equivalent volume of DMSO (0.2%). […]"}, "[3]": {"tested_on": "ERK1/2 MAPK", "assay": "Western Blot, phosphorylation of ERK1/2 MAPK in HaCaT cells", "conditions": "500 μM", "procedure": "as §1\nIn order to reveal a possible interaction of the two MAPK signalling pathways, ERK1/2 phosphorylation in the presence of the p38 MAPK inhibitor SB203580 and p38 MAPK phosphorylation in the presence of the ERK1/2 MAPK inhibitor U0126 were investigated. Phosphorylation was increased for both kinases in the presence of the respective inhibitors compared to the cells stimulated with Sandalore® only. This effect was significant for p38 MAPK (FIG. 17c).\nEffect of Sandalore® stimulation on phosphorylation of MAP kinases in skin cells. A) Western Blot for investigating the phosphorylation of the MAP kinases in HaCaT cells stimulated for 0, 5, 15 and 30 min with Sandalore®(500 μM). In order to confirm uniform protein volume, ▪-tubulin was used as a control. ERK1/2: 42/44 kDa; p38: 43 kDa; JNK/SAPK: 46/54 kDA; ▪-tubulin: 52 kDa. B) Quantitative evaluation of p38 and ERK1/2 phosphorylation of HaCaT cells stimulated for 30 min with Sandalore®(500 μM) or additionally with the p38 inhibitor 5B203580 (10 μM) or ERK1/2 inhibitor U0126 (10 μM). For evaluation, the ratio of the phosphorylated (p) and unphosphorylated proteins was established and compared to that of untreated cells. Mean values including standard error. Mann-Whitney U test. *: p<0.05; ***: p<0.001. In C), the inhibitors of the respective other MAP kinase were used, and phosphorylation was compared to the cells stimulated with Sandalore® (500 μM) alone. Mean values including standard error. Mann-Whitney U test. *: p<0.05. The Western Blot analyses were carried out with three different protein isolations."}, "[4]": {"tested_on": "HaCaT cells", "assay": "Agarose migration assay with HaCaT cells", "conditions": "500 μM versus 0.1% DMSO, five days", "procedure": "For this reason, an agarose migration assay was conducted in order to determine whether the increased cell growth is accompanied by increased chemotactic behavior.\n(§2) Effect of Sandalore® long-term stimulation on morphology, growth, and migration processes in keratinocytes. A) Phase contrast image and PI stains of HaCaT cells and primary keratinocytes after stimulation with Sandalore® (500 μM) or 0.1% DMSO (control) for five days. On positive PI staining, the cell nuclei are stained red. Scale: 100 μm. B) Evaluation of the proliferation assay carried out with the CyQuant Cell Proliferation Kit on HaCaT cells after 5-day stimulation with 500 μM of Sandalore® or 0.1% DMSO (control). For the RNA interference experiments, the cells were transfected with siRNA or scRNA on the day before Sandalore® stimulation. Shown is the mean cell count including standard error relative to untreated cells. Mann-Whitney U test; n=3 experiments. *: p<0.05; **: p<0.01. S: Sandalore. C) Agarose assay for determination of migration of HaCaT cells. Top: Transmitted light images of HaCaT cells that have migrated in the direction of Sandalore® (500 μM) or 0.1% DMSO. The growth margin of the cells was surrounded in black. Scale: 250 μm. Bottom: Evaluation of the proliferation assay. The longest path traversed by the cells and the overgrown area were measured and compared to the control (0.1% DMSO). Paired two-sided T test. […]"}, "[5]": {"tested_on": "primary keratinocytes", "assay": "Morphology and propidium iodide staining after 5-day stimulation, primary keratinocytes", "conditions": "5-day incubation with 500 μM", "procedure": "In order to obtain initial data on possible physiological effects caused by the activation of OR2AT4, HaCaT cells and primary keratinocytes were stimulated for five days with Sandalore®. […] A lethal effect of the odorant can therefore be ruled out (FIG. 16a).\nas §2, with “The growth margin of the cells was surrounded in black. Scale: 250 μm. Bottom: Evaluation of the proliferation assay.” left out, “DMSO).” for “DMSO). Paired two-sided T test.”"}}, "data": [{"smiles": "CC1=CCC(CCC(C)C(C)O)C1(C)C", "note": "(stereo not shown) [Sandalore®]", "values": [{"measurement": "phosphorylation of JNK/SAPK", "setting": "[1]", "result": "no phosphorylation of JNK/SAPK"}, {"measurement": "cAMP content", "setting": "[2]; 10-minute stimulation with various concentrations", "result": "dose-dependent cAMP increase"}, {"measurement": "EC50", "setting": "[2]; 10-minute stimulation, 1 μM-10,000 μM, read-out: EC50 value of cAMP increase", "result": 197, "unit": "µM"}, {"measurement": "phosphorylation of ERK1/2 MAPK, quantification", "setting": "[3]; 30-minute stimulation", "result": "significant increase"}, {"measurement": "phosphorylation of ERK1/2 MAPK", "setting": "[3]; within 5-30 min", "result": "increased phosphorylation"}, {"measurement": "chemotactic migration of the HaCaT cells", "setting": "[4]", "result": "significant chemotactic migration"}, {"measurement": "morphological changes or PI staining (lethal effect)", "setting": "[5]", "result": "neither the HaCaT cells nor the keratinocytes showed morphological changes or PI staining"}]}]}
